The NIST ThermoML archive (doi:10.1016/j.tca.2015.08.013)

Settings: for surface tension liquid-gas: Drop volume; for mass density / kinematic viscosity / speed of sound / vapor or sublimation pressure: Liquid; for mass density: Vibrating tube method; for kinematic viscosity / speed of sound: 101.33 kPa; for kinematic viscosity: Capillary tube (Ostwald / Ubbelohde) method; for speed of sound: Sing-around technique in a fixed-path interferometer; for vapor or sublimation pressure: Ebulliometric method (Recirculating still)

Cc1ccc(C)o1 [2,5-dimethylfuran]
Settings	kinematic viscosity [m2/s]	speed of sound [m/s]	surface tension liquid-gas [mN/m]	vapor or sublimation pressure [kPa]
278.15 K	6.7e-07	1281.9	27.5	–
280.65 K	6.5e-07	1271.1	27.19	–
283.15 K	6.34e-07	1260.2	26.86	–
283.16 K	–	–	–	3.015
285.65 K	6.12e-07	1249.2	26.57	–
288.15 K	5.95e-07	1238.3	26.22	–
288.36 K	–	–	–	4.037
290.65 K	5.79e-07	1227.5	25.91	4.575
293.15 K	5.63e-07	1216.5	25.54	–
293.16 K	–	–	–	5.195
295.65 K	5.48e-07	1206.3	25.3	–
298.15 K	5.34e-07	1194.9	25	–
298.25 K	–	–	–	6.75
300.65 K	5.2e-07	1185	24.67	–
302.52 K	–	–	–	8.37
303.15 K	5.04e-07	1173.3	24.33	–
305.65 K	4.95e-07	1163.8	24.02	–
308.15 K	4.83e-07	1151.9	23.7	–
309.17 K	–	–	–	11.59
310.65 K	4.71e-07	1142.5	23.34	–
313.15 K	4.57e-07	1130.7	23.01	–
314.61 K	–	–	–	14.8
315.65 K	4.5e-07	1121.2	22.7	–
318.15 K	4.4e-07	1109.5	22.29	–
319.27 K	–	–	–	18.09
320.65 K	4.3e-07	1100	21.97	–
323.15 K	4.23e-07	1088.5	21.69	–
324.99 K	–	–	–	22.86
325.65 K	4.12e-07	1078.7	21.29	–
328.09 K	–	–	–	26.07
328.15 K	4.03e-07	1067.6	20.95	–
330.65 K	3.95e-07	1057.5	20.58	–
332.43 K	–	–	–	30.95
333.15 K	3.89e-07	1046.9	20.34	–
335.48 K	–	–	–	34.85
335.65 K	3.8e-07	1036.2	20.01	–
338.15 K	3.72e-07	1029.2	19.65	–
338.4 K	–	–	–	38.81
340.95 K	–	–	–	42.52
343.11 K	–	–	–	46.09
345.85 K	–	–	–	50.77
348.13 K	–	–	–	55.05
350.87 K	–	–	–	60.51
352.82 K	–	–	–	64.61
354.3 K	–	–	–	68.12
356.1 K	–	–	–	72.15
357.87 K	–	–	–	76.61
359.42 K	–	–	–	80.63
361.09 K	–	–	–	85.02
362.46 K	–	–	–	88.86
363.39 K	–	–	–	91.39
364.36 K	–	–	–	94.28
365.26 K	–	–	–	97.05
366.7 K	–	–	–	101.33

Settings	mass density [kg/m3]
278.15 K, 99 kPa	917.53
280.65 K, 99 kPa	914.899
283.15 K, 99 kPa	912.247
283.15 K, 100 kPa	912.25
283.15 K, 2500 kPa	914.37
283.15 K, 5000 kPa	916.47
283.15 K, 7500 kPa	918.52
283.15 K, 10000 kPa	920.53
283.15 K, 20000 kPa	928.2
283.15 K, 30000 kPa	935.24
283.15 K, 40000 kPa	941.89
283.15 K, 50000 kPa	948.12
283.15 K, 60000 kPa	953.98
285.65 K, 99 kPa	909.614
288.15 K, 99 kPa	906.988
288.15 K, 100 kPa	906.99
288.15 K, 2500 kPa	909.13
288.15 K, 5000 kPa	911.29
288.15 K, 7500 kPa	913.42
288.15 K, 10000 kPa	915.49
288.15 K, 20000 kPa	923.34
288.15 K, 30000 kPa	930.62
288.15 K, 40000 kPa	937.41
288.15 K, 50000 kPa	943.72
288.15 K, 60000 kPa	949.78
290.65 K, 99 kPa	904.299
293.15 K, 99 kPa	901.636
293.15 K, 100 kPa	901.64
293.15 K, 2500 kPa	903.82
293.15 K, 5000 kPa	906.07
293.15 K, 7500 kPa	908.26
293.15 K, 10000 kPa	910.4
293.15 K, 20000 kPa	918.5
293.15 K, 30000 kPa	925.97
293.15 K, 40000 kPa	932.94
293.15 K, 50000 kPa	939.57
293.15 K, 60000 kPa	945.6
295.65 K, 99 kPa	898.951
298.15 K, 99 kPa	896.285
298.15 K, 100 kPa	896.29
298.15 K, 2500 kPa	898.6
298.15 K, 5000 kPa	900.94
298.15 K, 7500 kPa	903.16
298.15 K, 10000 kPa	905.39
298.15 K, 20000 kPa	913.73
298.15 K, 30000 kPa	921.4
298.15 K, 40000 kPa	928.44
298.15 K, 50000 kPa	935.19
298.15 K, 60000 kPa	941.44
300.65 K, 99 kPa	893.569
303.15 K, 99 kPa	890.898
303.15 K, 100 kPa	890.9
303.15 K, 2500 kPa	893.25
303.15 K, 5000 kPa	895.65
303.15 K, 7500 kPa	897.97
303.15 K, 10000 kPa	900.25
303.15 K, 20000 kPa	908.83
303.15 K, 30000 kPa	916.74
303.15 K, 40000 kPa	924.06
303.15 K, 50000 kPa	930.89
303.15 K, 60000 kPa	937.27
305.65 K, 99 kPa	888.151
308.15 K, 99 kPa	885.447
308.15 K, 100 kPa	885.45
308.15 K, 2500 kPa	887.9
308.15 K, 5000 kPa	890.36
308.15 K, 7500 kPa	892.78
308.15 K, 10000 kPa	895.14
308.15 K, 20000 kPa	903.98
308.15 K, 30000 kPa	912.1
308.15 K, 40000 kPa	919.56
308.15 K, 50000 kPa	926.54
308.15 K, 60000 kPa	933.08
310.65 K, 99 kPa	882.693
313.15 K, 99 kPa	879.927
313.15 K, 100 kPa	879.93
313.15 K, 2500 kPa	882.45
313.15 K, 5000 kPa	885.02
313.15 K, 7500 kPa	887.51
313.15 K, 10000 kPa	889.95
313.15 K, 20000 kPa	899.05
313.15 K, 30000 kPa	907.41
313.15 K, 40000 kPa	915.12
313.15 K, 50000 kPa	922.3
313.15 K, 60000 kPa	928.9
315.65 K, 99 kPa	877.195
318.15 K, 99 kPa	874.437
318.15 K, 100 kPa	874.44
318.15 K, 2500 kPa	877.03
318.15 K, 5000 kPa	879.68
318.15 K, 7500 kPa	882.27
318.15 K, 10000 kPa	884.79
318.15 K, 20000 kPa	894.18
318.15 K, 30000 kPa	902.74
318.15 K, 40000 kPa	910.6
318.15 K, 50000 kPa	917.91
318.15 K, 60000 kPa	924.74
320.65 K, 99 kPa	871.651
323.15 K, 99 kPa	868.85
323.15 K, 100 kPa	868.85
323.15 K, 2500 kPa	871.55
323.15 K, 5000 kPa	874.3
323.15 K, 7500 kPa	876.94
323.15 K, 10000 kPa	879.54
323.15 K, 20000 kPa	889.25
323.15 K, 30000 kPa	898.07
323.15 K, 40000 kPa	906.13
323.15 K, 50000 kPa	913.67
323.15 K, 60000 kPa	920.58
325.65 K, 99 kPa	866.06
328.15 K, 99 kPa	863.248
328.15 K, 100 kPa	863.25
328.15 K, 2500 kPa	866.05
328.15 K, 5000 kPa	868.91
328.15 K, 7500 kPa	871.68
328.15 K, 10000 kPa	874.38
328.15 K, 20000 kPa	884.36
328.15 K, 30000 kPa	893.38
328.15 K, 40000 kPa	901.61
328.15 K, 50000 kPa	909.29
328.15 K, 60000 kPa	916.43
330.65 K, 99 kPa	860.418
333.15 K, 99 kPa	857.577
333.15 K, 100 kPa	857.58
333.15 K, 2500 kPa	860.47
333.15 K, 5000 kPa	863.42
333.15 K, 7500 kPa	866.28
333.15 K, 10000 kPa	869.07
333.15 K, 20000 kPa	879.4
333.15 K, 30000 kPa	888.7
333.15 K, 40000 kPa	897.22
333.15 K, 50000 kPa	905.17
333.15 K, 60000 kPa	912.4
335.65 K, 99 kPa	854.721
338.15 K, 99 kPa	851.85
338.15 K, 100 kPa	851.85
338.15 K, 2500 kPa	854.88
338.15 K, 5000 kPa	857.96
338.15 K, 7500 kPa	860.93
338.15 K, 10000 kPa	863.81
338.15 K, 20000 kPa	874.45
338.15 K, 30000 kPa	884.02
338.15 K, 40000 kPa	892.61
338.15 K, 50000 kPa	900.74
338.15 K, 60000 kPa	908.17
